Several values for one entry are separate records, joined by “and”; a condition that tells them apart may be missing. Identical values can stand only once.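 Cultured in 96-well plates, cells were exposed to test compound for 48 hours across five concentrations. GI50 = concentration required for 50% inhibition of growth. TGI marks complete inhibition of growth.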
Tests used:
Experiment in all cases: NCI anticancer screen, dose series, 48 h
MALME-3M melanoma = test system: MALME-3M melanoma
UO-31 renal = test system: UO-31 renal
HOP-92 NSCLC = test system: HOP-92 NSCLC
CAKI-1 renal = test system: CAKI-1 renal
LOX IMVI melanoma = test system: LOX IMVI melanoma
RXF 393 renal = test system: RXF 393 renal
OVCAR-8 ovarian = test system: OVCAR-8 ovarian
HOP-62 NSCLC = test system: HOP-62 NSCLC

## C=CC(=O)NCc1cccc(Nc2ncc(Br)c(NCCCNC(=O)C3CCC3)n2)c1
MALME-3M melanoma
  GI50: 1.62 µM and 1.68 µM
  TGI: 5.78 µM and 6.56 µM
UO-31 renal
  GI50: 0.256 µM and 0.26 µM
  TGI: 1.11 µM and 0.916 µM
HOP-92 NSCLC
  GI50: 0.637 µM and 0.596 µM
  TGI: 5.21 µM and 16.4 µM
CAKI-1 renal
  GI50: 0.279 µM and 0.262 µM
  TGI: 1.45 µM and 1.48 µM
LOX IMVI melanoma
  GI50: 0.337 µM and 0.246 µM
  TGI: 4.21 µM and 4.58 µM
RXF 393 renal
  GI50: 0.166 µM and 0.123 µM
  TGI: 0.844 µM and 0.468 µM
OVCAR-8 ovarian
  GI50: 1.99 µM and 1.72 µM
  TGI: 12.5 µM and > 25 µM
HOP-62 NSCLC
  GI50: 0.448 µM and 0.152 µM
  TGI: 9.77 µM and 4.33 µM

## O=CNc1ncn[nH]1
MALME-3M melanoma
  TGI: > 100 µM
UO-31 renal
  TGI: > 100 µM
CAKI-1 renal
  TGI: > 100 µM
LOX IMVI melanoma
  TGI: > 100 µM
RXF 393 renal
  TGI: > 100 µM
OVCAR-8 ovarian
  TGI: > 100 µM
HOP-62 NSCLC
  TGI: > 100 µM

## CCN(CC)CCOc1ccccc1/C=C/c1noc2ccccc12
MALME-3M melanoma
  TGI: 13.9 µM
UO-31 renal
  TGI: 19.3 µM
CAKI-1 renal
  TGI: 26.2 µM
RXF 393 renal
  TGI: 9.97 µM
OVCAR-8 ovarian
  TGI: 24.8 µM
HOP-62 NSCLC
  TGI: 31.3 µM

## Clc1cccc(Cl)c1C1CSc2ccccc2N=C1c1ccccc1 (configuration not stated)
MALME-3M melanoma
  GI50: 10.9 µM
  TGI: 27.8 µM
UO-31 renal
  GI50: 1.42 µM
  TGI: 4.57 µM
CAKI-1 renal
  GI50: 10.6 µM
  TGI: 29.8 µM
LOX IMVI melanoma
  GI50: 1.75 µM
  TGI: 4.03 µM
RXF 393 renal
  GI50: 9.74 µM
  TGI: 24.1 µM
OVCAR-8 ovarian
  GI50: 3.34 µM
  TGI: 10.2 µM
HOP-62 NSCLC
  GI50: 20.7 µM
  TGI: 41 µM

## NC(N)=N/N=C/c1c(-c2cc(Cl)sc2Cl)nc2sccn12
UO-31 renal
  GI50: 2 µM
  TGI: > 50 µM
CAKI-1 renal
  GI50: 7.65 µM
  TGI: 16.3 µM
RXF 393 renal
  GI50: 3.52 µM
  TGI: 13.7 µM
OVCAR-8 ovarian
  GI50: 1.04 µM
  TGI: 2.84 µM
HOP-62 NSCLC
  GI50: 2.07 µM
  TGI: 7.24 µM

## C=C(C)[C@@H]1CC[C@]2(C(=O)O)CC[C@]3(C)[C@H](CC[C@@H]4[C@@]5(C)C[C@@H](CC#Cc6ccc(C(F)(F)F)cc6)[C@H](O)C(C)(C)[C@@H]5CC[C@]43C)[C@@H]12
UO-31 renal
  GI50: 6.52 µM
  TGI: > 100 µM
HOP-92 NSCLC
  GI50: 3.09 µM
  TGI: 13.8 µM
CAKI-1 renal
  GI50: 2.63 µM
  TGI: > 100 µM
RXF 393 renal
  GI50: 2.39 µM
  TGI: 5.49 µM
OVCAR-8 ovarian
  GI50: 3.55 µM
  TGI: > 100 µM

## CCCCCCCCN(CCCCCCCC)CCCCCCNc1cc(OC)cc2cccnc12
MALME-3M melanoma
  GI50: 6.92 µM
  TGI: 21.9 µM
UO-31 renal
  GI50: 10.9 µM
  TGI: 24.4 µM
CAKI-1 renal
  GI50: 12.1 µM
  TGI: 32.5 µM
LOX IMVI melanoma
  GI50: 3.79 µM
  TGI: 13.5 µM
RXF 393 renal
  GI50: 14.2 µM
  TGI: 28.5 µM
OVCAR-8 ovarian
  GI50: 3.39 µM
  TGI: 12.4 µM
HOP-62 NSCLC
  GI50: 11.1 µM
  TGI: 23.5 µM

## COc1cc(OC)c(/C=C\c2ccnc3ccccc23)c(OC)c1
MALME-3M melanoma
  TGI: 16.5 µM
UO-31 renal
  TGI: 3.55 µM
HOP-92 NSCLC
  TGI: 9.91 µM
CAKI-1 renal
  TGI: 22.2 µM
LOX IMVI melanoma
  TGI: 13.6 µM
RXF 393 renal
  TGI: 11.6 µM
HOP-62 NSCLC
  TGI: 18.6 µM

## COc1ccc2c(c1)[n+](=O)c(C(=O)c1ccco1)c(C(F)(F)F)n2[O-]
UO-31 renal
  GI50: 0.387 µM
  TGI: 2.51 µM
HOP-92 NSCLC
  GI50: 1.83 µM
  TGI: 19.5 µM
CAKI-1 renal
  GI50: 0.642 µM
  TGI: 4.54 µM
LOX IMVI melanoma
  GI50: 1.19 µM
  TGI: 3.59 µM
RXF 393 renal
  GI50: 1.67 µM
  TGI: 12 µM
OVCAR-8 ovarian
  GI50: 2.23 µM
  TGI: 9.41 µM
HOP-62 NSCLC
  GI50: 2.86 µM
  TGI: 21.6 µM

## O=C(c1ccccc1)c1ccc(Oc2ccc([N+](=O)[O-])cc2[N+](=O)[O-])cc1
UO-31 renal
  GI50: 2.05 µM
  TGI: 7.76 µM
HOP-92 NSCLC
  GI50: 2.87 µM
  TGI: 9.27 µM
CAKI-1 renal
  GI50: 2.29 µM
  TGI: 5.52 µM
LOX IMVI melanoma
  GI50: 3.06 µM
  TGI: 15.1 µM
RXF 393 renal
  GI50: 3.32 µM
  TGI: 11.8 µM
OVCAR-8 ovarian
  GI50: 3.39 µM
  TGI: 14.4 µM
HOP-62 NSCLC
  GI50: 7.81 µM
  TGI: 43.1 µM

Source: PubChem BioAssay (NCI)
